Data taken from PMC10693528, “A high-throughput metabolomics in vitro platform for the characterization of hepatotoxicity” (Cell Biology and Toxicology, 2023).

System: HepG2 cells
Test: LC-MS/MS targeted intracellular metabolomics
Assay type: cell-based, human
Conditions: 48 h
Experimental: Metabolite profiling of cells was performed directly in the same 96-well plate according to a standardized protocol described below. In order to prevent any interaction with the cell material, the automatic sampler was adjusted to pick up the sample from the supernatant at a specified depth avoiding the contact with the bottom of the plate.
After the initial quenching step (50 μL isopropanol 80%), additional 70 μL of isopropanol 80%, containing internal standards (methionine-D3, tryptophan-D5, arginine-13C6-15N4, Boc-Ala-Gly-Gly-Gly-OH, coenzyme Q1, coenzyme Q2, coenzyme Q4) were added to each well. The internal standards were used for quality control by visual inspection (signal intensity, peak shape, retention time); they were not used for normalization. Afterwards, plates were shaken for 5 min, 750 rpm at 20 °C, and placed for 30 s in the ultrasonic device. Then, the plates were centrifugated for 10 min, at 5485 g, 15 °C. Further, 2.5 μL of the extract were injected each for reversed-phase and hydrophilic interaction liquid chromatography followed by MS/MS detection (AB Sciex QTrap 6500+) using the positive and negative ionization mode. For reverse-phase high-performance liquid chromatography (RP-HPLC, Ascentis Express C18, 5 cm × 2.1 mm, 2.7 μm Supelco), gradient elution was performed with mobile phase A, water/methanol/0.1 M ammonium formate (1:1:0.02, w/w), and B, methyl-tert-butylether/2-propanol/methanol/0.1 M ammonium formate/formic acid (4:2:1:0.07:0.035, w/w) 5.9 min linear gradient: 0 min 100% A, 0.5 min 75% A, 5.9 min 10% A; followed by 0% A until 6.7 min; re-equilibration at 100% A until 7.7 min; flow rate 600 μL/min; column temperature 40 °C HILIC (ZIC-HILIC, 2.1 × 100 mm, 3.5 μm, Supelco) gradient elution was performed with mobile phase C, acetonitrile/water (99:1, v/v) with 0.2% (v) acetic acid, and D, 7 mM ammonium acetate with 0.2% (v) acetic acid (5.0 min linear gradient: 0 min 100% C, 5 min 10% C; followed by a linear gradient back to 100%C until 6.5 min; re-equilibration at 100% C until 7.5 min; flow rate 600 μL/min; column temperature 40 °C.). Two LC-MS systems with identical configuration were used for the analysis. Normalization to lyophilized reference samples (see below) was used to compensate for variation from between analytical batches. The efficiency of this normalization procedure was checked by principal component analysis (PCA), confirming that Pool samples from different analytical batches clustered together.
Reference samples derived from lyophilized untreated HepG2 cells (technical control samples) were measured in parallel throughout the entire analytical process. Data were normalized against the median of these lyophilized HepG2 cells reference samples, to give normalized ratios (performed for each sample per metabolite). This compensated for inter- and intra-instrumental variation. To correct for small differences in cell numbers within and between different treatment groups, data were also normalized to the within sample median, as described in detail by (Ramirez et al. [2018]). For intracellular metabolomic analysis, the median of each sample was calculated across all the 221 measured metabolites.
To generate metabolic profiles for the different treatments, heteroscedastic t test (Welch test) was applied to log-transformed normalized metabolite data to compare treated groups with their respective controls.
Principal component analysis (PCA) and hierarchical clustering (HCA) analyses were performed using R software environment (https://www.r-project.org/). PCA was conducted using the ropls package (Thévenot et al. [2015]) with log10-transformed input data and standard scaling. HCA was performed using the pvclust package (Suzuki et al. [2019]), (https://CRAN.R-project.org/package=pvclust). Input: log10(Ratio), clustering method: Ward D2, distance method: Manhattan, bootstrapping: 10000 times.

[1] = Suppl Fig 9, C3 (EC15 ATP), Bezafibrate lines = Plates 1-6 in order
[2] = Suppl Fig 10, C3 (C2 for Aroclor)

Compound: Cc1cccc(Nc2cc(Cl)nc(SCC(=O)O)n2)c1C [Wy-14643]
- 2'-Deoxycytidine level vs controls [1]: 0.75
- 5-Hydroxytryptophan level vs controls [1]: 0.85
- Carnitine level vs controls [1]: 0.99
- Ceramide (d18:1.C20:0) level vs controls [1]: 0.66
- Ceramide (d18:1.C24:1) level vs controls [1]: 0.92
- Ceramide (d18:1.C24:2) level vs controls [1]: 0.71
- Ceramide (d18:2.C24:1) level vs controls [1]: 0.97
- Choline plasmalogen (C36:4) level vs controls [1]: 1.00
- Choline plasmalogen (C36:5) level vs controls [1]: 1.03
- Creatine level vs controls [1]: 0.85
- Glycerol-3-phosphate level vs controls [1]: 0.72
- Hexanoylcarnitine level vs controls [1]: 0.93
- Ketoleucine level vs controls [1]: 0.86
- Lysophosphatidylcholine (C14:0) level vs controls [1]: 1.51
- Lysophosphatidylcholine (C16:0) level vs controls [1]: 1.26
- Lysophosphatidylcholine (C16:1) level vs controls [1]: 1.06
- Lysophosphatidylcholine (C20:4) level vs controls [1]: 1.28
- Lysophosphatidylcholine (C24:0) level vs controls [1]: 1.50
- Lysophosphatidylcholine (C24:1) level vs controls [1]: 1.20
- Lysophosphatidylethanolamine (C16:0) level vs controls [1]: 1.18
- Lysophosphatidylethanolamine (C18:0) level vs controls [1]: 1.26
- Lysophosphatidylethanolamine (C18:1) level vs controls [1]: 1.12
- N-Acetylaspartate level vs controls [1]: 1.22
- Pantothenic acid level vs controls [1]: 0.74
- Phosphatidylcholine (C32:0) level vs controls [1]: 0.81
- Phosphatidylcholine (C34:1) level vs controls [1]: 0.91
- Phosphatidylcholine (C34:3) level vs controls [1]: 1.04
- Phosphatidylcholine (C36:1) level vs controls [1]: 0.96
- Phosphatidylcholine (C36:2) level vs controls [1]: 0.86
- Phosphatidylcholine (C36:3) level vs controls [1]: 0.93
- Phosphatidylcholine (C36:4) level vs controls [1]: 0.98
- Phosphatidylcholine (C36:5) level vs controls [1]: 0.92
- Phosphatidylethanolamine (C36:3) level vs controls [1]: 0.82
- Phosphatidylethanolamine (C38:3) level vs controls [1]: 0.92
- Phosphatidylethanolamine (C38:5) level vs controls [1]: 0.89
- Phosphatidylethanolamine (C38:6) level vs controls [1]: 0.96
- Phosphatidylethanolamine (C40:7) level vs controls [1]: 0.92
- Phosphocholine level vs controls [1]: 0.91
- Propionylcarnitine level vs controls [1]: 0.97
- S-Adenosylhomocysteine level vs controls [1]: 1.03
- Sphingomyelin (d32:2) level vs controls [1]: 0.79
- Sphingomyelin (d33:1) level vs controls [1]: 1.13
- Sphingomyelin (d34:0) level vs controls [1]: 1.04
- Sphingomyelin (d35:1) level vs controls [1]: 0.99
- Sphingomyelin (d36:1) level vs controls [1]: 0.90
- Sphingomyelin (d36:2) level vs controls [1]: 0.97
- Sphingomyelin (d37:1) level vs controls [1]: 0.81
- Sphingomyelin (d38:1) level vs controls [1]: 0.84
- Sphingomyelin (d38:2) level vs controls [1]: 0.74
- Sphingomyelin (d39:1) level vs controls [1]: 0.94
- Sphingomyelin (d40:2) level vs controls [1]: 0.81
- Sphingomyelin (d41:2) level vs controls [1]: 0.79
- Sphingomyelin (d42:2) level vs controls [1]: 0.79
- Taurine level vs controls [1]: 0.97
- Triacylglycerol (C34:1.C18:3) level vs controls [1]: 1.01
- Triacylglycerol (C34:2.C18:0) level vs controls [1]: 1.14
- Triacylglycerol (C34:2.C18:1) level vs controls [1]: 1.01
- Triacylglycerol (C36:4.C16:0) level vs controls [1]: 1.09
- Triacylglycerol (C36:4.C18:0) level vs controls [1]: 1.18

Compound: O=c1cc(-c2ccccc2)oc2ccc3ccccc3c12 [β-naphthoflavone]
- Carnitine level vs controls [2]: 0.88
- Ceramide (d16:1.C24:0) level vs controls [2]: 1.20
- Ceramide (d17:1.C24:0) level vs controls [2]: 1.24
- Ceramide (d18:1.C20:0) level vs controls [2]: 0.73
- Ceramide (d18:1.C22:1) level vs controls [2]: 0.65
- Ceramide (d18:1.C24:1) level vs controls [2]: 0.64
- Ceramide (d18:2.C16:0) level vs controls [2]: 1.48
- Ceramide (d18:2.C23:0) level vs controls [2]: 1.56
- Ceramide (d18:2.C24:0) level vs controls [2]: 1.41
- Ceramide (d18:2.C24:1) level vs controls [2]: 1.23
- Choline plasmalogen (C36:4) level vs controls [2]: 0.82
- Choline plasmalogen (C36:5) level vs controls [2]: 0.84
- Cysteinylglycine level vs controls [2]: 3.16
- Flavin adenine dinucleotide (FAD) level vs controls [2]: 1.63
- Glutathione (GSH) level vs controls [2]: 2.59
- Hexanoylcarnitine level vs controls [2]: 1.02
- Isopentenyl pyrophosphate (IPP) level vs controls [2]: 2.43
- Lysophosphatidylcholine (C14:0) level vs controls [2]: 1.48
- Lysophosphatidylcholine (C16:0) level vs controls [2]: 2.15
- Lysophosphatidylcholine (C20:0) level vs controls [2]: 2.34
- Lysophosphatidylcholine (C20:1) level vs controls [2]: 2.23
- Lysophosphatidylcholine (C20:4) level vs controls [2]: 1.68
- Lysophosphatidylcholine (C22:0) level vs controls [2]: 1.99
- Lysophosphatidylcholine (C24:0) level vs controls [2]: 2.67
- Lysophosphatidylcholine (C24:1) level vs controls [2]: 2.34
- Lysophosphatidylethanolamine (C16:0) level vs controls [2]: 1.77
- Lysophosphatidylethanolamine (C18:0) level vs controls [2]: 2.25
- N-Acetylglucosamine level vs controls [2]: 0.79
- N-Acetylserine level vs controls [2]: 1.03
- O-Acetylcarnitine level vs controls [2]: 0.87
- Pantothenic acid level vs controls [2]: 0.96
- Phosphatidylcholine (C32:0) level vs controls [2]: 1.16
- Phosphatidylcholine (C34:0) level vs controls [2]: 1.39
- Phosphatidylcholine (C34:2) level vs controls [2]: 0.77
- Phosphatidylcholine (C34:3) level vs controls [2]: 0.60
- Phosphatidylcholine (C36:0) level vs controls [2]: 1.62
- Phosphatidylcholine (C36:1) level vs controls [2]: 1.21
- Phosphatidylcholine (C36:2) level vs controls [2]: 0.80
- Phosphatidylcholine (C36:3) level vs controls [2]: 0.87
- Phosphatidylcholine (C36:4) level vs controls [2]: 1.08
- Phosphatidylcholine (C38:6) level vs controls [2]: 1.09
- Phosphatidylethanolamine (C32:0) level vs controls [2]: 1.63
- Phosphatidylethanolamine (C34:0) level vs controls [2]: 1.79
- Phosphatidylethanolamine (C34:1) level vs controls [2]: 1.38
- Phosphatidylethanolamine (C34:2) level vs controls [2]: 0.93
- Phosphatidylethanolamine (C36:0) level vs controls [2]: 2.10
- Phosphatidylethanolamine (C36:1) level vs controls [2]: 1.81
- Phosphatidylethanolamine (C36:3) level vs controls [2]: 0.84
- Phosphatidylethanolamine (C38:5) level vs controls [2]: 0.93
- Phosphatidylethanolamine (C40:7) level vs controls [2]: 0.79
- Proline level vs controls [2]: 0.64
- Propionylcarnitine level vs controls [2]: 1.03
- Sphingomyelin (d32:1) level vs controls [2]: 0.84
- Sphingomyelin (d35:1) level vs controls [2]: 1.06
- Sphingomyelin (d38:2) level vs controls [2]: 0.94
- Sphingomyelin (d40:2) level vs controls [2]: 0.77
- Sphingomyelin (d41:2) level vs controls [2]: 0.85
- Sphingomyelin (d42:2) level vs controls [2]: 0.74
- Triacylglycerol (C30:0.C18:1) level vs controls [2]: 0.36
- Triacylglycerol (C32:0.C16:1) level vs controls [2]: 0.41
- Triacylglycerol (C32:1.C16:1) level vs controls [2]: 0.26
- Triacylglycerol (C34:0.C18:1) level vs controls [2]: 0.47
- Triacylglycerol (C34:1.C16:0) level vs controls [2]: 0.39
- Triacylglycerol (C34:1.C18:1) level vs controls [2]: 0.47
- Triacylglycerol (C34:2.C18:0) level vs controls [2]: 0.40
- Triacylglycerol (C34:2.C18:1) level vs controls [2]: 0.24
- Triacylglycerol (C36:1.C18:0) level vs controls [2]: 0.46
- Triacylglycerol (C36:1.C18:1) level vs controls [2]: 0.35
- Triacylglycerol (C36:1.C18:2) level vs controls [2]: 0.46
- Triacylglycerol (C36:2.C18:1) level vs controls [2]: 0.41
- Triacylglycerol (C36:3.C18:1) level vs controls [2]: 0.38
- Tyrosine level vs controls [2]: 1.14
- myo-Inositol-2-phosphate level vs controls [2]: 0.65
- Sphingomyelin (d34:2) level vs controls (Suppl Fig 10, C3 (C2 for Aroclor), first of two lines with this name): 1.05
- Sphingomyelin (d34:2) level vs controls (Suppl Fig 10, C3 (C2 for Aroclor), second of two lines with this name): 1.07
